In the assay the target is T1, SHP2 (Homo sapiens, UniProt Q06124).
T1 sequence (Q06124 1-593): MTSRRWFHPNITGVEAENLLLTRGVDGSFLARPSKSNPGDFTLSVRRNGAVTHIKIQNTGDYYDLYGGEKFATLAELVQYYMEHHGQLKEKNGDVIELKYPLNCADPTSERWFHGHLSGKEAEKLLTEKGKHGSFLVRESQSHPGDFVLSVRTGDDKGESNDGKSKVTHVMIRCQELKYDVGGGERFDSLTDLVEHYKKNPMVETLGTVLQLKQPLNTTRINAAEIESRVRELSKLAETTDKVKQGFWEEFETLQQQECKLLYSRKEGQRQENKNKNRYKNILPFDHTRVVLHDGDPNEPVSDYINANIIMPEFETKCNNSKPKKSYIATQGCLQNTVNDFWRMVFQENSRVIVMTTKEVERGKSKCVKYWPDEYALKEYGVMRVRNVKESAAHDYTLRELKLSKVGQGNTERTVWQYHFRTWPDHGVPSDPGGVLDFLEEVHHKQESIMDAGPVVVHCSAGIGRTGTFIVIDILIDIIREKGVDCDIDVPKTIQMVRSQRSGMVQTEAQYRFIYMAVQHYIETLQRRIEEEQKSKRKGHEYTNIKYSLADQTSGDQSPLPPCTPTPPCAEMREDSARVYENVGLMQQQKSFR
Put plainly: biochemical. Particulars: read-out: SHP2 inhibition (%)@0.1 μM.
As usually defined, the inhibition is the share of the control response that was lost under treatment. On to `N[C@@H]1c2cccnc2CC12CCN(c1cnc(Sc3ccnc(F)c3Cl)cn1)CC2` [Example 115, (S)-1′-(5-((3-chloro-2-fluoropyridin-4-yl)thio)pyrazin-2-yl)-5,7-dihydrospiro [cyclopenta[b]pyridine-6,4′-piperidin]-5-amine], for which the inhibition at 0.1 µM was determined as 86%.
Next, `CC(=O)c1cccc2c1CC1(CCN(c3cnc(Sc4ccnc(N)c4Cl)c(N)n3)CC1)[C@@H]2N` [Example 159, (S)-1-(1-amino-1′-(6-amino-5-((2-amino-3-chloropyridin-4-yl)thio)pyrazin-2-yl)-1,3-dihydrospiro[indene-2,4′-piperidin]-4-yl)ethan-1-one]: 88%; `Nc1nc(N2CCC3(CC2)Cc2ccc(C(=O)N4CCCCC4)cc2[C@H]3N)cnc1Sc1ccnc(N)c1Cl` [Example 59, (S)-(1-amino-1′-(6-amino-5-((2-amino-3-chloropyridin-4-yl)thio)pyrazin-2-yl)-1,3-dihydrospiro [indene-2,4′-piperidin]-6-yl)(piperidin-1-yl)methanone]: 69%.
`COc1nccc(Sc2cnc(N3CCC4(CC3)Cc3ccccc3[C@H]4N)cn2)c1Cl` [Example 51, (S)-1′-(5-((3-chloro-2-methoxypyridin-4-yl)thio)pyrazin-2-yl)-1,3-dihydro-spiro[indene-2,4′-piperidin]-1-amine]: the inhibition at 0.1 µM worked out at 85%.
With `Nc1nc(N2CCC3(CC2)Cn2c(cccc2=O)[C@H]3N)cnc1Sc1ccnc(N)c1Cl` [Example 70, (S)-1-amino-1′-(6-amino-5-((2-amino-3-chloropyridin-4-yl)thio)pyrazin-2-yl)-3H-spiro[indolizine-2,4′-piperidin]-5(1H)-one] the figure was 30%; with `Nc1nc(N2CCC3(CC2)c2ncccc2C[C@H]3N)cnc1Sc1ccnc(N)c1Cl` [Example 4, (R)-1′-(6-amino-5-((2-amino-3-chloropyridin-4-yl)thio)pyrazin-2-yl)-5,6-dihydrospiro[cyclopenta[b]pyridine-7,4′-piperidin]-6-amine], 20%.
Next, `Nc1nc(N2CCC3(CC2)Cc2cc(Br)ccc2C3N)cnc1Sc1ccnc(N)c1Cl` (stereo not shown) [Example 129, 1′-(6-amino-5-((2-amino-3-chloropyridin-4-yl)thio)pyrazin-2-yl)-5-bromo-1,3-dihydro-spiro[indene-2,4′-piperidin]-1-amine]: 74%.
With `COc1cc2c(cc1Cl)[C@@H](N)C1(CCN(c3cnc(Sc4ccnc(N)c4Cl)c(N)n3)CC1)C2` [Example 32, (S)-1′-(6-amino-5-((2-amino-3-chloropyridin-4-yl)thio)pyrazin-2-yl)-6-chloro-5-methoxy-1,3-dihydrospiro[indene-2,4′-piperidin]-1-amine] the figure was 85%.
On to `Nc1nccc(Sc2cnc(N3CCC4(CC3)c3ccccc3CC4N)cn2)c1Cl` (stereo not shown) [Example 132, 1′-(5-((2-amino-3-chloropyridin-4-yl)thio)pyrazin-2-yl)-2,3-dihydrospiro[indene-1,4′-piperidin]-2-amine], for which the inhibition at 0.1 µM amounted to 78%.
`Nc1nc(N2CCC3(CC2)Cc2cnccc2[C@@H]3N)cnc1Sc1ccnc(N)c1Cl` [Example 65, (R)-1′-(6-amino-5-((2-amino-3-chloropyridin-4-yl)thio)pyrazin-2-yl)-5,7-dihydrospiro[cyclopenta [c]pyridine-6,4′-piperidin]-5-amine]: the inhibition at 0.1 µM was 0%.
With `Nc1nc(N2CCC3(CC2)Cc2ncccc2[C@H]3N)cnc1Sc1cc(F)ncc1Cl` [Example 102, (S)-1′-(6-amino-5-((5-chloro-2-fluoropyridin-4-yl)thio)pyrazin-2-yl)-5,7-dihydro-spiro[cyclopenta[b]pyridine-6,4′-piperidin]-5-amine] the figure was 81%.
Next, `Nc1nc(N2CCC3(CC2)Cc2cc(F)c(F)cc2[C@H]3N)cnc1Sc1ccnc(N)c1Cl` [Example 39, (S)-1′-(6-amino-5-((2-amino-3-chloropyridin-4-yl)thio)pyrazin-2-yl)-5,6-difluoro-1,3-dihydro-spiro[indene-2,4′-piperidin]-1-amine]: 67%; `Nc1cnccc1Sc1ncc(N2CCC3(CC2)Cc2ncccc2[C@H]3N)nc1N` [Example 109, (S)-1′-(6-amino-5-((3-aminopyridin-4-yl)thio)pyrazin-2-yl)-5,7-dihydrospiro[cyclo-penta[b]pyridine-6,4′-piperidin]-5-amine]: 71%.
For `COc1cccc2c1C(N)C1(CCN(c3cnc(Sc4ccnc(N)c4Cl)c(N)n3)CC1)C2` (stereo not shown) [Example 148, 1′-(6-amino-5-((2-amino-3-chloropyridin-4-yl)thio)pyrazin-2-yl)-7-methoxy-1,3-dihydrospiro[indene-2,4′-piperidin]-1-amine], the inhibition at 0.1 µM is 72%.
Take `COc1cc2c(cn1)[C@@H](N)C1(CCN(c3cnc(Sc4ccnc(N)c4Cl)c(N)n3)CC1)C2` [Example 20]: the inhibition at 0.1 µM is 86%.
Consider `Nc1nc(N2CCC3(CC2)Cc2ccccc2C3N)cnc1Sc1ccnc(N)c1Cl` (stereo not shown) [Example 124, 1′-(6-amino-5-((2-amino-3-chloropyridin-4-yl)thio)pyrazin-2-yl)-1,3-dihydrospiro [indene-2,4′-piperidin]-1-amine], for which the inhibition at 0.1 µM worked out at 84%.
In the case of `Nc1nc(N2CCC3(CC2)Cc2cnccc2[C@H]3N)cnc1Sc1ccnc(N)c1Cl` [Example 22, (S)-1′-(6-amino-5-((2-amino-3-chloropyridin-4-yl)thio)pyrazin-2-yl)-5,7-dihydrospiro [cyclopenta[c]pyridine-6,4′-piperidin]-5-amine], the inhibition at 0.1 µM is 30%.
As for `N#Cc1ncccc1Sc1ncc(N2CCC3(CC2)Cc2ncccc2[C@H]3N)nc1N` [Example 118, (S)-3-((3-amino-5-(5-amino-5,7-dihydrospiro [cyclopenta[b]pyridine-6,4′-piperidin]-1′-yl)pyrazin-2-yl)thio)picolinonitrile], the inhibition at 0.1 µM worked out at 81%.
For `N#Cc1cccc2c1CC1(CCN(c3cnc(Sc4ccnc(N)c4Cl)c(N)n3)CC1)[C@@H]2N` [Example 16, (S)-1-amino-1′-(6-amino-5-((2-amino-3-chloropyridin-4-yl)thio)pyrazin-2-yl)-1,3-dihydrospiro [indene-2,4′-piperidine]-4-carbonitrile], the inhibition at 0.1 µM stood at 75%.
Turning to `Nc1nc(N2CCC3(CC2)Oc2ncccc2[C@H]3N)cnc1Sc1ccnc(N)c1Cl` [Example 96], the inhibition at 0.1 µM came out at 66%.
Take `CC(=O)N1CC(F)(F)c2c(Sc3ncc(N4CCC5(CC4)c4ccccc4C[C@H]5N)nc3N)cccc21` [Example 6, (R)-1-(4-((3-amino-5-(2-amino-2,3-dihydrospiro[indene-1,4′-piperidin]-1′-yl)pyrazin-2-yl)thio)-3,3-difluoroindolin-1-yl)ethan-1-one]: the inhibition at 0.1 µM was determined as 66%.
Next, `CC(=O)N1CC(F)(F)c2c(Sc3ncc(N4CCC5(CC4)Cc4ncccc4[C@H]5N)nc3N)cccc21` [Example 103, (S)-1-(4-((3-amino-5-(5-amino-5,7-dihydrospiro [cyclopenta[b]pyridine-6,4′-piperidin]-1′-yl)pyrazin-2-yl)thio)-3,3-difluoroindolin-1-yl) ethan-1-one]: 76%; `Nc1nc(N2CCC3(CC2)Cc2ccc(Cl)cc2[C@H]3N)cnc1Sc1ccnc(N)c1Cl` [Example 15, (S)-1′-(6-amino-5-((2-amino-3-chloropyridin-4-yl)thio)pyrazin-2-yl)-6-chloro-1,3-dihydrospiro[indene-2,4′-piperidin]-1-amine]: 83%.
With `CC(C)(C)c1cc2c(s1)CC1(CCN(c3cnc(Sc4ccnc(N)c4Cl)c(N)n3)CC1)[C@@H]2N` [Example 79, (S)-1′-(6-amino-5-((2-amino-3-chloropyridin-4-yl)thio)pyrazin-2-yl)-2-(tert-butyl)-4,6-dihydro-spiro[cyclopenta [b]thiophene-5,4′-piperidin]-4-amine] the figure was 58%.
In the case of `Nc1nc(N2CCC3(CC2)Cc2c(ccc4ccccc24)[C@H]3N)cnc1Sc1ccnc(N)c1Cl` [Example 31, (S)-1′-(6-amino-5-((2-amino-3-chloropyridin-4-yl)thio)pyrazin-2-yl)-1,3-dihydrospiro[cyclopenta [a]naphthalene-2,4′-piperidin]-3-amine], the inhibition at 0.1 µM was found to be 70%.
Next, `N#Cc1ncccc1Sc1cnc(N2CCC3(CC2)Cc2ncccc2[C@H]3N)cn1` [Example 117, (S)-3-((5-(5-amino-5,7-dihydrospiro [cyclopenta[b]pyridine-6,4′-piperidin]-1′-yl)pyrazin-2-yl)thio) picolinonitrile]: 81%; `N[C@@H]1c2cccnc2CC12CCN(c1cnc(Sc3cc(Cl)ncc3C(F)(F)F)cn1)CC2` [Example 119, (S)-1′-(5-((2-chloro-5-(trifluoro-methyl)pyridin-4-yl)thio)pyrazin-2-yl)-5,7-dihydro-spiro[cyclopenta [b]pyridine-6,4′-piperidin]-5-amine]: 61%.
As to `Nc1nc(N2CCC3(CC2)[C@H](N)c2ccccc2[C@H]3N)cnc1Sc1ccnc(N)c1Cl` [Example 67, (1R,3R)-1′-(6-amino-5-((2-amino-3-chloropyridin-4-yl)thio)pyrazin-2-yl)-1,3-dihydrospiro[indene-2,4′-piperidine]-1,3-diamine], the inhibition at 0.1 µM worked out at 63%.

Source of the values: patent US10988466B2, “Heterocyclic derivatives useful as SHP2 inhibitors” (Jacobio Pharmaceuticals Co., Ltd., priority 2017, dated 2021).
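Note: compounds preincubated 30 min at room temperature in the assay mixture, activity referenced to a 0.5% (v/v) DMSO control taken as 100%, run in triplicate.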
